Experimental data published in US6221874A, “Method of treating bone loss by stimulation of calcitonin” (American Home Products Corporation, priority 1999, dated 2001).

Tests used:
[1] = system: calcitonin secreted by the C1-3 cell line (TT medullary thyroid carcinoma); assay: Calcitonin Secretion/RIA Assay; format: cell-based; details: Homo sapiens, C13, C1-3 cells, active if Secretion Ratio>2.5
Procedure: Calcitonin Secretion/RIA Assay Protocol
This assay was used to determine the ability of a compound to increase the amount of calcitonin secreted by the C1-3 cell line.
Cell Line: C1-3 (Parent Cell Line: TT-medullary thyroid carcinoma),
1. Glass tubes were labeled to include Total Count (TC), Nonspecific Binding (NSB), Maximum Binding (Bo), Standards, Controls and Patient Sera in duplicate.
2. […] of Standard Zero (Reagent D) was added to tubes 3 through 6 (NSB and Bo).
3. […] of Standards* (Reagents E-1) was added to tubes 7-16 as follows:
4. […] of Patient Serum 1 was added to tubes 21 and 22, Patient Serum 2 was added to tubes 23 and 24, etc.
5. […] of Reagent L (NSB Buffer) was added to tubes 3 and 4.
6. […] of Reagent A (Anti-Calcitonin) was added to all tubes except tubes 1 & 2 (TC) and tube 3 & 4 (NSB). All tubes were vortexed, covered with parafilm or foil and incubated 44±6 hours at 2-8° C.
7. […] of 125.vertline.Calcitonin (Reagent B) was added to all tubes. All tubes were vortexed, covered with parafilm or foil and incubated 22±3 hours at 2-8° C.
8. Reagent C (Anti-Goat Precipitant) was mixed gently but thoroughly by inverting the vial several times before use. 1 mL Reagent C was added to all tubes except 1 and 2 (TC). Tubes were vortexed and incubated 20 minutes at room temperature.
9. All tubes were centrifuged at 1300-1500×g for 15 minutes at 2-8° C.
10. Supernatant was decanted immediately after centrifugation taking care to leave the precipitate intact.
11. Tubes were counted 4 minutes or longer.
Secretion Ratio: Stimulation of calcitonin secretion is expressed as a ratio of secretion activity in the presence of test compound compared to the secretion activity in the untreated control: [formula]
Secretion Activity: Compounds were designated active if Secretion Ratio>2.5.

[2] = system: promoter region of the human calcitonin gene (C1-3 reporter cells, TT human thyroid carcinoma); assay: Calcitonin/Luciferase Reporter Gene Expression Assay (transcription activation ratio); format: cell-based; details: C13, 12 h, C1-3 cells, active if TAR>1.5, read-out: TAR (transcription activation ratio, luciferase activity with test compound vs untreated control)
[3] = system: Phosphodiesterase IV (PDE-IV) isolated from human U937 cells; assay: Inhibition of Phosphodiesterase IV (PDE-IV) Isolated from Human U937 Cells; format: biochemical; details: for IC50: linear regression of percent inhibition data bracketing 50% inhibition; for % Inhibition of PDE IV (normalized to rolipram): 1 μM [3H]-cAMP substrate
[4] = system: Ovarietomy Induced Osteopenia in Rats; assay: Ovarietomy Induced Osteopenia in Rats (trabecular BMD); format: in vivo; details: Rattus norvegicus, 672 h; 30 mg/kg/day, ip; 4 weeks; n=8; * p < 0.005 vs. vehicle value (Examples 6, 12, 18); read-out: Percent Protection (trabecular BMD)
[5] = cited from earlier work
[6] = post-menopausal osteoporosis; cited from earlier work

Compound | fold induction at 30 µM [1] | fold induction at 30 µM [2] | IC50 [3] [µM] | % Inhibition of PDE IV (normalized to rolipram) [3] [%] | inhibition in vivo at 30 mg/kg [4] [%] | oral bioavailability (in words) [5] | effect on bone mass and total body calcium [6] | incidence of hip and vertebral fractures [6]
CCCCn1c(=O)c2c(ncn2S(C)(=O)=O)n(CCCC)c1=O [Example 1, 1,3-Dibutyl-7-methanesulfonyl-3,7-dihydro-purine-2,6-dione] | 4.65 | 2.1 | 25.2 | 16 |  |  |  | 
CCCCn1c(=O)c2c(ncn2S(=O)(=O)CCCC)n(CCCC)c1=O [Example 2, 7-(Butane-1-sulfonyl)-1,3-dibutyl-3,7-dihydro-purine-2,6-dione] | 4.65 | 2.2 |  | 97 | 23 |  |  | 
CCCCn1c(=O)c2c(ncn2S(=O)(=O)c2cccc([N+](=O)[O-])c2)n(CCCC)c1=O [Example 3, 1,3-Dibutyl-7-(3-nitro-benzenesulfonyl)-3,7-dihydro-purine-2,6-dione] | 1.65 | 2 |  | 87 | 30 |  |  | 
CCCCn1c(=O)c2c(ncn2S(=O)(=O)c2ccc(OC)c(OC)c2)n(CCCC)c1=O [Example 4, 1,3-Dibutyl-7-(3,4-dimethoxy-benzenesulfonyl)-3,7-dihydro-purine-2,6-dione] | 4.7 | 2.5 | 1.2 | 41 | 35 |  |  | 
CCCCn1c(=O)c2c(ncn2S(=O)(=O)c2cccs2)n(CCCC)c1=O [Example 5, 1,3-Dibutyl-7-(thiophene-2-sulfonyl)-3,7-dihydro-purine-2,6-dione] |  | 1.8 |  | 52 |  |  |  | 
CCCCn1c(=O)c2c(ncn2S(=O)(=O)CCCCl)n(CCCC)c1=O [Example 6, 1,3-Dibutyl-7-(3-chloro-propane-1-sulfonyl)-3,7-dihydro-purine-2,6-dione] | 3.6 | 2 | 4.1 | 44 | 47 |  |  | 
CCCCn1c(=O)c2c(ncn2S(=O)(=O)c2cccc3ccccc23)n(CCCC)c1=O [Example 7, 1,3-Dibutyl-7-(naphthalene-1-sulfonyl)-3,7-dihydro-purine-2,6-dione] | 4.5 | 2.5 |  | 83 | 37 |  |  | 
CCCCn1c(=O)c2c(ncn2S(=O)(=O)c2ccc(NO)cc2)n(CCCC)c1=O [Example 8, 1,3-Dibutyl-7-(4-hydroxyamino-benzenesulfonyl)-3,7-dihydro-purine-2,6-dione] | 5.4 | 2 |  | 82 | -2 |  |  | 
CCCCn1c(=O)c2c(ncn2S(=O)(=O)Cc2ccccc2)n(CCCC)c1=O [Example 9, 1,3-Dibutyl-7-phenylmethanesulfonyl-3,7-dihydro-purine-2,6-dione] | 5.1 | 2.3 | 3.2 | 93 | 25 |  |  | 
CCCCn1c(=O)c2c(ncn2S(=O)(=O)C[C@@]23CC[C@@H](CC2=O)C3(C)C)n(CCCC)c1=O [Example 10, 1,3-Dibutyl-7-(7,7-dimethyl-2-oxo-bicyclo[2.2. 1]hept-1-ylmethanesulfonyl)-3,7-dihydro-purine-2,6-dione] | 4.5 | 2 |  | 89 | -10 |  |  | 
CCCCn1c(=O)c2c(ncn2S(=O)(=O)c2ccc(N(OC(C)=O)C(C)=O)cc2)n(CCCC)c1=O [Example 11, N-Acetoxy-N-[4-(1,3-dibutyl-2,6-dioxo-1,2,3,6-tetrahydro-purine-7-sulfonyl)-phenyl]-acetamide] | 4.3 | 2.1 |  |  |  |  |  | 
CCCCn1c(=O)c2c(ncn2S(=O)(=O)c2c(C)cc(C)cc2C)n(CCCC)c1=O [Example 12, 1,3-Dibutyl-7-(2,4,6-trimethyl-benzenesulfonyl)-3,7-dihydro-purine-2,6-dione] | 4.04 | 2.1 | 6 | 42 | 50 |  |  | 
CCCCn1c(=O)c2c(ncn2S(=O)(=O)c2ccc(C(C)(C)C)cc2)n(CCCC)c1=O [Example 13, 1,3-Dibutyl-7-(4-tert-butyl-benzenesulfonyl)-3,7-dihydro-purine-2,6-dione] | 5.1 | 1.8 |  | 66 | 13 |  |  | 
CCCCn1c(=O)c2c(ncn2S(=O)(=O)c2c(C)noc2C)n(CCCC)c1=O [Example 14, 1,3-Dibutyl-7-(3,5-dimethyl-isoxazole-4-sulfonyl)-3,7-dihydro-purine-2,6-dione] | 3.3 | 2.5 |  | 20 |  |  |  | 
CCCCn1c(=O)n(CC=C(C)C)c(=O)c2c1ncn2S(=O)(=O)c1ccc(C)cc1 [Example 15, 3-Butyl-1-(3-methyl-but-2-enyl)-7-(toluene-4-sulfonyl)-3,7-dihydro-purine-2,6-dione] | 3.74 | 2.1 | 5.2 | 35 | 15 |  |  | 
CCCCn1c(=O)n(CC)c(=O)c2c1ncn2S(=O)(=O)c1ccc(C)cc1 [Example 16, 3-Butyl-1-ethyl-7-(toluene-4-sulfonyl)-3,7-dihydro-purine-2,6-dione] |  | 2.1 | 6 | 38 |  |  |  | 
CCCCn1c(=O)n(CC=C(C)C)c(=O)c2c1ncn2S(=O)(=O)c1ccc(OC)c(OC)c1 [Example 17, 3-Butyl-7-(3,4-dimethoxy-benzenesulfonyl)-1-(3-methyl-but-2-enyl)-3,7-dihydro-purine-2,6-dione] | 3.66 | 2.8 |  | 24 |  |  |  | 
CCCCn1c(=O)c2c(ncn2S(=O)(=O)c2cc(C)c(Cl)cc2C)n(CCCC)c1=O [Example 18, 1,3-Dibutyl-7-(4-chloro-2,5-dimethyl-benzenesulfonyl)-3,7-dihydro-purine-2,6-dione] | 5.32 | 2.5 | 23.3 | 37 | 52 |  |  | 
CCCCn1c(=O)c2c(nc(C)n2S(=O)(=O)CCCCl)n(CCCC)c1=O [Example 19, 1,3-Dibutyl-7-(3-chloro-propane-1-sulfonyl)-8-methyl-3,7-dihydro-purine-2,6-dione] | 4.09 | 1.7 |  | 5 |  |  |  | 
CCCCn1c(=O)c2c(nc(C)n2S(=O)(=O)c2ccc(C)cc2)n(CCCC)c1=O [Example 20, 1,3-Dibutyl-8-methyl-7-(toluene-4-sulfonyl)-3,7-dihydro-purine-2,6-dione] | 3.23 | 2 |  | 58 |  |  |  | 
calcitonin: 32 amino acid polypeptide hormone secreted by the parafollicular or C cells of the thyroid gland |  |  |  |  |  | lack of oral bioavailability | maintenance of bone mass and total body calcium | decreases in the incidence of hip and vertebral fractures
